Reference: patent US11384381B2, “Reaction accelerating agent” (Kikkoman Corporation, priority 2016, dated 2022)

Columns and labels:
[1] = test system: CFP-DH4 (A1cOX); assay: HbA1c detection reaction completed with excess A1cOX (Example 4); assay type: biochemical; details: 0.04% (w/v) compound, 5.3 mg/ml CFP-DH4 (excess), blood cells 10.4% HbA1c, pH 6.5, 37° C.
Description: In this Example, the amount of change in absorbance when an excess amount of A1cOX is used and HbA1c detection reaction was completed is determined.
A reagent for HbA1c measurement having the following composition was prepared, and the measurement of HbA1c was carried out using Bio Majesty JCA-BMI650 (manufactured by JEOL Ltd.).
(§1) Blood cells (10.4% HbA1c (NGSP value))
(§2) 30 mM MOPS-NaOH buffer solution, pH 6.5
0.2% (w/v) n-dodecyl-β-D-maltoside (manufactured by Dojindo Laboratories)
(§3) 10 U/ml peroxidase PEO-301 (Toyobo Co., Ltd.)
(§4) 0.023 mM 10-(carboxymethylaminocarbonyl)-3,7-bis(dimethylamino)phenothiazine sodium (DA-67, manufactured by Wako Pure Chemical Industries, Ltd.)
0.04% (w/v) of the compound of Comparative Example 2 (Wako Pure Chemical Industries, Ltd.), any one compound of the present invention (all from Tokyo Chemical Industry Co., Ltd. except for Acid Yellow 34 from MP Biomedicals, LLC), or compound-free (Comparative Example 1) ion-exchange water as shown in Table 1 (Second Reagent-A) 10 mM MOPS-NaOH buffer solution, pH 6.5 5.3 mg/ml CFP-DH4 (A cOX)
8 μl of the sample diluted 51-fold with ion-exchange water was added to 96 μl of the first reagent-A, and the mixture was incubated at 37° C. for 5 minutes. Then, 24 μl of the second reagent-A was added thereto, and the quantitative reaction of hydrogen peroxide resulting from the oxidation of the β-chain amino terminus of HbA1c was allowed to progress at 37° C. for 5 minutes. The absorbance (A694 and A751) of the reaction solution for light at wavelengths of 694 nm and 751 nm was measured over time for 10 minutes after the mixing of the diluted sample with the first reagent-A to determine the value subtracting of A751 from A694, i.e., the value A694/751. Subsequently, ΔA was calculated by subtracting, from A694/751, the value of (104/128) times A694/751 4.8 minutes after mixing the diluted sample with the first reagent-A. Incidentally, 4.8 minutes after the mixing of the diluted sample with the first reagent-A represents the time immediately before the addition of the second reagent-A. ΔA 9 minutes and 10 minutes after the mixing of the diluted sample with the first reagent (ΔA9min and ΔA10min) are shown in Table 1.
In other words, it can be recognized that the quantitative reaction of HbA1c, i.e., the quantitative reaction of hydrogen peroxide resulting from the oxidation of HbA1c, was completed in 10 minutes after the mixing of the diluted sample with the first reagent-A. Accordingly, in Examples 4 and 5, ΔA10min in each Comparative Example or the present invention was defined as ΔA when 100% of the quantitative reaction of HbA1c progressed under each condition (ΔA100%).

[2] = test system: CFP-DH4 (A1cOX); assay: Acceleration of HbA1c detection reaction with small amount of A1cOX (Example 5); assay type: biochemical; details: HbA1c detection reaction, ΔA/ΔA100%, 0.04% (w/v) compound, 1.1 mg/ml CFP-DH4
Description: Next, in this Example, the degree of acceleration of HbA1c detection reaction by the compound of the present invention was determined using a small amount of A1cOX.
A reagent for HbA1c measurement having the following composition was prepared, and the measurement of HbA1c was carried out using Bio Majesty JCA-BM1650 (manufactured by JEOL Ltd.).
as §1, §2
0.2% (w/v) n-dodecyl-3-D-maltoside (manufactured by Dojindo Laboratories)
as §3, §4
0.04% (w/v) of the compound of Comparative Example 2, any one compound of the present invention, or compound-free (Comparative Example 1) ion-exchange water as shown in Table 2
10 mM MOPS-NaOH buffer solution, pH 6.5
1.1 mg/ml CFP-DH4 (A cOX)
8 μl of the sample diluted 51-fold with ion-exchange water was added to 96 μl of the first reagent, and the mixture was incubated at 37° C. for 5 minutes. Then, 24 μl of the second reagent-B was added thereto, and the quantitative reaction of hydrogen peroxide resulting from the oxidation of the β-chain amino terminus of HbA1c was allowed to progress at 37° C. for 5 minutes. The absorbance ([…] and A751) of the reaction solution for light at wavelengths of 694 nm and 751 nm was measured over time for 10 minutes after the mixing of the diluted sample with the first reagent to determine the value of subtraction of A751 from A694, i.e., the value A694/751. Subsequently, ΔA was calculated by subtracting, from A694/751, the value of (104/128) times A694/751 4.8 minutes after the mixing of the diluted sample with the first reagent. Incidentally, […] after the mixing of the diluted sample with the first reagent represents the time immediately before the addition of the second reagent-B.
Next, ΔA calculated in this Example was divided by ΔA100% defined in Example 4 to calculate the degree of progression of HbA1c detection reaction. The degree of progression of HbA1c detection reaction 7.5 and 10 minutes after the mixing of the diluted sample with the first reagent (in other words, 2.5 and 5 minutes after the addition of the second reagent-B) is shown in Table 2.

Q: With O=C([O-])C1=NN(c2ccc(S(=O)(=O)[O-])cc2)C(=O)C1N=Nc1ccc(S(=O)(=O)[O-])cc1.[Na+].[Na+].[Na+] (stereo not shown) [Tartrazine, reference compound] as the compound, how does the ΔA9 min ([1]; change in A694-A751 9 minutes after mixing sample with first reagent) read?
A: Its ΔA9 min is 0.032.

Q: And the ΔA10 min ([1]; change in A694-A751 10 minutes after mixing sample with first reagent, defined as ΔA100%)?
A: The ΔA10 min was 0.032.

Q: And the “Degree of progression of reaction (%) after 7.5 minutes” value ([2]; 2.5 minutes after addition of second reagent, not added: 51)?
A: The value was 38%.

Q: What about the “Degree of progression of reaction (%) after 10 minutes” value ([2]; 5 minutes after addition of second reagent, not added: 73) of the same compound?
A: Its value is 62%.
